Data as given in publication PMC9183037 (Polymers, 2022).

Key:
Caco-2 cells = experiment: Cytotoxicity by MTT assay, 4 h incubation; assay type: cell-based, Human; conditions: 0.03-1 μM
Description: (§1) The cytotoxicity of chitosan-based nanoparticles was measured by MTT assay. Caco-2, HT-29, and Raji-B cells at the logarithmic growth stage were inoculated on 96-well plates at 5 × 10^3 cells per well, respectively. The cells were cultured at 37 °C, 5% CO2 for 48 h, then the culture medium was removed and 150 μL of drug-containing culture medium was added to the final concentrations of 1, 0.5, 0.25, 0.125, 0.06, and 0.03 μM. After incubation for 4 h, 20 μL of MTT solution (5 mg/mL) was added to each well, which was incubated for an additional 4 h. Then, the culture medium was discarded and replaced with 150 μL dimethyl sulfoxide. The plates were placed on the shaker and oscillated for 10 min.
(§2) The absorbance was measured at 570 nm using an enzyme marker (ST360, KHB, Shanghai, China). Cell viability was calculated as a percentage of the absorbance relative to that of the control.

HT-29 cells = experiment: Cytotoxicity by MTT assay, 4 h incubation; assay type: cell-based, Human; conditions: 0.03-1 μM
Description: as §1, §2

Raji-B cells = experiment: Cytotoxicity by MTT assay, 4 h incubation; assay type: cell-based, Human; conditions: 0.03-1 μM
Description: as §1, §2

type 2 diabetic rats = experiment: In vivo pharmacodynamics study: blood glucose in type 2 diabetic rats; parameters: species or system Sprague-Dawley (SD) rats; conditions: T2DM rats, subcutaneous 65 μg/kg
Description: SD rats were fed high-fat diets containing 45% fat to induce insulin resistance. After one-month diets, a standard 16 h fast in SD rats was conducted, and a 30 mg/mL STZ solution prepared with 0.1 mol/L citrate-sodium citrate buffer (pH 4.5) was injected intraperitoneally at a dose of 30 mg/kg (avoid light, the injection was completed within 30 min). Then the rats were given sufficient water and fasted. Restored the diet after 2 h. If the fasting blood glucose was higher than 16.67 mmol/L for two consecutive times, and the rats were accompanied by significant polydipsia, polyphagia, polyuria, and weight loss, it is considered to be successfully modeled and subsequent experiments could be carried out. To evaluate therapeutic effects, thirty T2DM rats were randomly divided into five groups, fasted overnight, and labeled respectively. […] Blood samples were collected from the tail tip at 0, 0.5, 1, 2, 3, 4, 6, and 10 h after administration to observe the changes in blood glucose levels, and the blood glucose-time curve was plotted.

Compound	cytotoxicity to Caco-2 cells (Caco-2 cells)	cytotoxicity to HT-29 cells (HT-29 cells)	cytotoxicity to Raji B cells (Raji-B cells)	time of minimum blood glucose concentration (type 2 diabetic rats) [h]	change of blood glucose concentration (type 2 diabetic rats; 0-10 h)
CCN(CC)c1ccc2c(-c3ccccc3C(=O)O)c3ccc(=[N+](CC)CC)cc-3oc2c1 [Rhodamine B]	no cytotoxicity	no cytotoxicity	no cytotoxicity		
Insulin				3	decreased significantly within 3 h
